In this experiment the target is Nav 1.7 (Homo sapiens (Human), UniProt Q15858). The experiment in a line: in-vitro Nav 1.7 PX (IC50). The format is cell-based.

Where two headings read alike, the source gives them in different places.

Sequence of Nav 1.7 (Q15858 whole entry): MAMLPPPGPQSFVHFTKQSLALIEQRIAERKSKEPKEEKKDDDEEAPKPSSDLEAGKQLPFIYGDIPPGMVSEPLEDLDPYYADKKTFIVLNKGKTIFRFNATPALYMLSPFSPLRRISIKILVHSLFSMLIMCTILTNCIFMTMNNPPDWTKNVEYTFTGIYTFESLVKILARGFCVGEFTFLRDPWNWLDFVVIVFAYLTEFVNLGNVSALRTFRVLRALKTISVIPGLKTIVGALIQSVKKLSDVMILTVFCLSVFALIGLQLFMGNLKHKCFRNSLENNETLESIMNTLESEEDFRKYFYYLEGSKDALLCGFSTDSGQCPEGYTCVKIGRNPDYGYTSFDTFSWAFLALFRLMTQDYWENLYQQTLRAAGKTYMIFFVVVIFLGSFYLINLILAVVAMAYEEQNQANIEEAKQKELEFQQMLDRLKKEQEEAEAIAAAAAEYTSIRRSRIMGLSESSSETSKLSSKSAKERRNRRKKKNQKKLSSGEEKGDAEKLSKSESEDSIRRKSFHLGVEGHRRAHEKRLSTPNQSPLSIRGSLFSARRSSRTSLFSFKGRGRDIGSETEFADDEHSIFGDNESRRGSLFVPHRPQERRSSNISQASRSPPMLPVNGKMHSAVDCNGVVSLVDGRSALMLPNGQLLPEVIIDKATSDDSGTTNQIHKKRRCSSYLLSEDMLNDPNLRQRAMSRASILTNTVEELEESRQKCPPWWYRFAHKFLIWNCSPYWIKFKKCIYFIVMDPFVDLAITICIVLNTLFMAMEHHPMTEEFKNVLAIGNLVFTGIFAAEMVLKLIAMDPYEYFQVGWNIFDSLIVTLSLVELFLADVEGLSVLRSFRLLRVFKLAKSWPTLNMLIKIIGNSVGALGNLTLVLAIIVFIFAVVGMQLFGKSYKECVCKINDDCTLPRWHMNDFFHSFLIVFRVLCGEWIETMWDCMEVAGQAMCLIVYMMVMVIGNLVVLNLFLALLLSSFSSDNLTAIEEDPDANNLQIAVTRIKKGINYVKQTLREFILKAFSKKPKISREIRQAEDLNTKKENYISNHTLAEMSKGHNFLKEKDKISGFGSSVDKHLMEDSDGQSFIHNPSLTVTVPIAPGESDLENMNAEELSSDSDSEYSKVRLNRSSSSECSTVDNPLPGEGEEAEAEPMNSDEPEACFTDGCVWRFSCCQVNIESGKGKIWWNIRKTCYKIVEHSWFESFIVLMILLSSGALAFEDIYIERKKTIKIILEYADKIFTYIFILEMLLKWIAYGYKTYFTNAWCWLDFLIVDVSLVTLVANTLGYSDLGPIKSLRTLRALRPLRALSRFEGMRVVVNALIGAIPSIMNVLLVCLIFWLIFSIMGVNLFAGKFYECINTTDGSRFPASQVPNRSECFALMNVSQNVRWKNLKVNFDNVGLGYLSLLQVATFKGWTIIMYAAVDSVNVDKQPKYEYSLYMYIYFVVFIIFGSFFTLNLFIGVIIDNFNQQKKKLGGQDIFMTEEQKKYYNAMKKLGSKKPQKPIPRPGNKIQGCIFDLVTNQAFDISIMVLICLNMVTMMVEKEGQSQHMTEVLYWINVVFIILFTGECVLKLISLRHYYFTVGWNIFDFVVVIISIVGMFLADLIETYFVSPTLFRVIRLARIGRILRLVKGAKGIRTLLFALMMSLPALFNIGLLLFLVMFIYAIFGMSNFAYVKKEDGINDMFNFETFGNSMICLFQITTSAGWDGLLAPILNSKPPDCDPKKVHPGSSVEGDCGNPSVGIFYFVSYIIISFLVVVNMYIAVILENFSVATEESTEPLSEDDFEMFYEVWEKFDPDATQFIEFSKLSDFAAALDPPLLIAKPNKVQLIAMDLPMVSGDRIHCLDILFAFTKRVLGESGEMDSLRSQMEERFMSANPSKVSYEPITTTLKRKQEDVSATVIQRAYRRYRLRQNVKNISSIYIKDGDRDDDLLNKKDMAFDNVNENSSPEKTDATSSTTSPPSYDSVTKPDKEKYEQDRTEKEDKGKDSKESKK

As a reminder, the IC50 is the concentration needed to halve the response being measured. A higher IC50 goes with weaker potency in that assay. In turn, `COc1cc(-c2ccc(F)c(Cl)c2)ccc1-n1c(=O)cnc2cc(S(=O)(=O)Nc3ccon3)ccc21` [Example 1198, 1-(3′-chloro-4′-fluoro-3-methoxy-4-biphenylyl)-N-3-isoxazolyl-2-oxo-1,2-dihydro-6-quinoxalinesulfonamide] showed an IC50 of 39 nM.
Take `COc1ccnc(-c2cc(OC)c(-n3c(=O)ccc4cc(S(=O)(=O)Nc5ccon5)ccc43)cc2F)n1` [Example 808, 1-(5-fluoro-2-methoxy-4-(4-methoxy-2-pyrimidinyl)phenyl)-N-3-isoxazolyl-2-oxo-1,2-dihydro-6-quinolinesulfonamide]: the IC50 (in-vitro Nav 1.7 PX data) was 3070 nM.
On to `COc1cc(-c2cccc(C(F)(F)F)c2)c(F)cc1-n1c(=O)ccc2cc(S(=O)(=O)Nc3ccon3)c(F)cc21` [Example 980, 7-fluoro-1-(2-fluoro-5-methoxy-3′-(trifluoromethyl)-4-biphenylyl)-N-3-isoxazolyl-2-oxo-1,2-dihydro-6-quinolinesulfonamide], for which half-maximal inhibition (in-vitro Nav 1.7 PX data) (IC50) was put at 22 nM.
With `COc1ccc(-c2cccc(Cl)c2)cc1-n1c(=O)ccc2cc(S(=O)(=O)Nc3ccon3)ccc21` [Example 852, 1-(3′-chloro-4-methoxy-3-biphenylyl)-N-3-isoxazolyl-2-oxo-1,2-dihydro-6-quinolinesulfonamide], the IC50 (in-vitro Nav 1.7 PX data) was 22 nM.
In turn, `COc1cc(CC2CCCCC2)c(F)cc1-n1c(=O)ccc2cc(S(=O)(=O)Nc3cccnn3)ccc21` [Example 1112, 1-(4-(cyclohexylmethyl)-5-fluoro-2-methoxyphenyl)-2-oxo-N-3-pyridazinyl-1,2-dihydro-6-quinolinesulfonamide] registered an IC50 (in-vitro Nav 1.7 PX data) of 25 nM.
`COc1nc(OCC2(C)CC2)c(Cl)cc1-n1c(=O)ccc2cc(S(=O)(=O)Nc3ccon3)ccc21` [Example 822, 1-(5-chloro-2-methoxy-6-((1-methylcyclopropyl)methoxy)-3-pyridinyl)-N-3-isoxazolyl-2-oxo-1,2-dihydro-6-quinolinesulfonamide] showed an IC50 (in-vitro Nav 1.7 PX data) of 460 nM.
As for `COc1cc(-c2cccc(OC)c2C)c(C)cc1-n1c(=O)ccc2cc(S(=O)(=O)Nc3ncccn3)ccc21` [Example 968, 1-(3′,5-dimethoxy-2,2′-dimethyl-4-biphenylyl)-2-oxo-N-2-pyrimidinyl-1,2-dihydro-6-quinolinesulfonamide], for the setting “in-vitro Nav 1.7 PX data”, the concentration for half-maximal inhibition (IC50) stood at 57 nM.
Take `COc1ccc(-c2cccc(C(F)(F)F)c2)cc1-n1c(=O)ccc2cc(S(=O)(=O)Nc3ccon3)ccc21` (atropisomer, axis not shown; (M)) [Example 382, (M)-N-3-isoxazolyl-1-(4-methoxy-3′-(trifluoromethyl)-3-biphenylyl)-2-oxo-1,2-dihydro-6-quinolinesulfonamide]: the half-inhibitory concentration (IC50) turned out to be 3080 nM.
`COc1ccccc1-n1c(=O)ccc2cc(S(=O)(=O)Nc3ccon3)ccc21` [Example 1154, N-(isoxazol-3-yl)-1-(2-methoxyphenyl)-2-oxo-1,2-dihydroquinoline-6-sulfonamide] displayed an IC50 of 10100 nM.
For `COc1cc(-c2cccc(OC(C)C)c2)ccc1-n1c(=O)ccc2cc(S(=O)(=O)Nc3ncc(F)cn3)ccc21` [Example 827, N-(5-fluoro-2-pyrimidinyl)-1-(3-methoxy-3′-(1-methylethoxy)-4-biphenylyl)-2-oxo-1,2-dihydro-6-quinolinesulfonamide], half-maximal inhibition (in-vitro Nav 1.7 PX data) (IC50) was put at 177 nM. This counts as sub-micromolar.
Consider `COc1cc(-c2ccc(Cl)cc2)ccc1-n1c(=O)ccc2cc(S(=O)(=O)Nc3ccnc(C)n3)ccc21` [Example 768, 1-(4′-chloro-3-methoxy-4-biphenylyl)-N-(2-methyl-4-pyrimidinyl)-2-oxo-1,2-dihydro-6-quinolinesulfonamide], for which half-maximal inhibition (in-vitro Nav 1.7 PX data) (IC50) was put at 52 nM. This IC50 lies about 3.4-fold lower than the previous one.
The same measure, in the same setting: as for `COc1ccc(-c2cc(C)cc(Cl)c2)cc1-n1c(=O)ccc2cc(S(=O)(=O)Nc3ccon3)ccc21` [Example 867, 1-(3′-chloro-4-methoxy-5′-methyl-3-biphenylyl)-N-3-isoxazolyl-2-oxo-1,2-dihydro-6-quinolinesulfonamide], the figure is 16 nM.

Source of the values: US9212182B2, “Bicyclic sulfonamide compounds as sodium channel inhibitors” (AMGEN INC., priority 2013, dated 2015).
